Results on five compounds are retold here after ChEMBL document CHEMBL2029212, “Discovery of 1,4-disubstituted 3-cyano-2-pyridones: a new class of positive allosteric modulators of the metabotropic glutamate 2 receptor” (J Med Chem, 2012).

The subject of series [1] is Rattus norvegicus. Nature of the series: Effect on sleep-awake cycle in Sprague-Dawley rat EEG model assessed as intermediate state of sleep time at 10 mg/kg, sc by sleep-wake electroencephalogram assay. In kind it is functional, organism-based. Further details: dose 10 mg/kg.
In series [2] the test system is Rattus norvegicus. Kind of series: Effect on sleep-awake cycle in Sprague-Dawley rat EEG model assessed as deep sleep time at 10 mg/kg, sc by sleep-wake electroencephalogram assay. The class given is functional, organism-based. Further details: dose 10 mg/kg.
Series [3] addresses Metabotropic glutamate receptor 4 (Homo sapiens) (UniProt Q14833). Nature of the series: Agonist activity at human mGluR4 expressed in L929 cells by [35S]GTPgammaS binding assay. The class given is functional, cell-based. On the technique in general: Binding of GTPγS marks nucleotide exchange on a G protein.
Series [4] shares this target. Kind of series: Antagonist activity at human mGluR4 expressed in L929 cells by [35S]GTPgammaS binding assay. The class given is functional, cell-based.
Series [5] concerns the target Metabotropic glutamate receptor 6 (Rattus norvegicus) (UniProt P35349). Nature of the series: Agonist activity at rat mGluR6 expressed in CHO cells by [35S]GTPgammaS binding assay. In kind it is functional, cell-based.
The target is the same in series [6]. Kind of series: Antagonist activity at rat mGluR6 expressed in CHO cells by [35S]GTPgammaS binding assay. The class given is functional, cell-based.
For series [7], the target named is Sodium-dependent noradrenaline transporter (Homo sapiens) (UniProt P23975). Nature of the series: Binding affinity to norepinephrine transporter at 10 uM.
The subject of series [8] is Rattus norvegicus. Kind of series: Inhibition of rapid eye movement sleep in Sprague-Dawley rat EEG model at 10 mg/kg, sc up to 2 hrs by sleep-wake electroencephalogram assay. In kind it is functional, organism-based. Also noted: dose 10 mg/kg.
Series [9] deals with Rattus norvegicus. Kind of series: Effect on sleep-awake cycle in Sprague-Dawley rat EEG model assessed as active awake time at 10 mg/kg, sc by sleep-wake electroencephalogram assay. Further details: dose 10 mg/kg. In kind it is functional, organism-based.
Series [10] deals with Rattus norvegicus. Nature of the series: Effect on sleep-awake cycle in Sprague-Dawley rat EEG model assessed as increase of REM sleep onset latency at 10 mg/kg, sc by sleep-wake electroencephalogram assay. The class given is functional, organism-based. Further details: dose 10 mg/kg.
For series [11], the system named is Rattus norvegicus. Nature of the series: Effect on sleep-awake cycle in Sprague-Dawley rat EEG model assessed as passive wake time at 10 mg/kg, sc by sleep-wake electroencephalogram assay. The class given is functional, organism-based. Further details: dose 10 mg/kg.
Series [12] has as its system Rattus norvegicus. Nature of the series: Effect on sleep-awake cycle in Sprague-Dawley rat EEG model assessed as light sleep time at 10 mg/kg, sc by sleep-wake electroencephalogram assay. In kind it is functional, organism-based. Also noted: dose 10 mg/kg.
Series [13] has as its target T1, Metabotropic glutamate receptor 2 (Homo sapiens, UniProt Q14416). Kind of series: Positive allosteric modulation of human mGlu2 receptor expressed in CHO cells assessed as glutamate-induced [35S]GTPgammaS binding after 30 mins by liquid scintillation counting. The class given is functional, cell-based.
Target sequence in this assay (Q14416 whole entry): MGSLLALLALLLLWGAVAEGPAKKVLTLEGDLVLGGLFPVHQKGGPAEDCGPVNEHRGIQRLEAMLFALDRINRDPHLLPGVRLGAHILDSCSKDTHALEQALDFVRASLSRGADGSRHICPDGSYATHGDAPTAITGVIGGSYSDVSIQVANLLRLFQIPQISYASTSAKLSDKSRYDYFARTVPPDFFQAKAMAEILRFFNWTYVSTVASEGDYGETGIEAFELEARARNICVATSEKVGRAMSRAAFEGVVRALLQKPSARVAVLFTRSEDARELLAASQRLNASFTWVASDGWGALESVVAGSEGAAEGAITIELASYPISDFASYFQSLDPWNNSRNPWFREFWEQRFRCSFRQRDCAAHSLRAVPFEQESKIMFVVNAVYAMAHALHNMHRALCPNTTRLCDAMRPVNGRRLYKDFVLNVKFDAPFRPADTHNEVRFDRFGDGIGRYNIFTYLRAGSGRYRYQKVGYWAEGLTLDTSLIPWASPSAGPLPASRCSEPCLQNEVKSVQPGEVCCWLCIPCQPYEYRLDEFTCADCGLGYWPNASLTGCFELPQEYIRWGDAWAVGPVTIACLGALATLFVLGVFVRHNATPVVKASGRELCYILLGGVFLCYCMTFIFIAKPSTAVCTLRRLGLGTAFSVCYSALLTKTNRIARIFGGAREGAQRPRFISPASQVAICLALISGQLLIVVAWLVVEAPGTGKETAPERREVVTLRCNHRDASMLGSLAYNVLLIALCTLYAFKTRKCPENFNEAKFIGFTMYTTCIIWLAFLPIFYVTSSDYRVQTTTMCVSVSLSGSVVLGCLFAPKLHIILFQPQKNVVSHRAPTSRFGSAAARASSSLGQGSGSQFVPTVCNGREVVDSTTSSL
Series [14] concerns the target T1, Metabotropic glutamate receptor 2. Nature of the series: Positive allosteric modulation of human mGlu2 receptor expressed in CHO cells assessed as glutamate-induced [35S]GTPgammaS binding after 30 mins by liquid scintillation counting relative to glutamate. The class given is functional, cell-based.
Target sequence in this assay (Q14416 19-872 limits assumed): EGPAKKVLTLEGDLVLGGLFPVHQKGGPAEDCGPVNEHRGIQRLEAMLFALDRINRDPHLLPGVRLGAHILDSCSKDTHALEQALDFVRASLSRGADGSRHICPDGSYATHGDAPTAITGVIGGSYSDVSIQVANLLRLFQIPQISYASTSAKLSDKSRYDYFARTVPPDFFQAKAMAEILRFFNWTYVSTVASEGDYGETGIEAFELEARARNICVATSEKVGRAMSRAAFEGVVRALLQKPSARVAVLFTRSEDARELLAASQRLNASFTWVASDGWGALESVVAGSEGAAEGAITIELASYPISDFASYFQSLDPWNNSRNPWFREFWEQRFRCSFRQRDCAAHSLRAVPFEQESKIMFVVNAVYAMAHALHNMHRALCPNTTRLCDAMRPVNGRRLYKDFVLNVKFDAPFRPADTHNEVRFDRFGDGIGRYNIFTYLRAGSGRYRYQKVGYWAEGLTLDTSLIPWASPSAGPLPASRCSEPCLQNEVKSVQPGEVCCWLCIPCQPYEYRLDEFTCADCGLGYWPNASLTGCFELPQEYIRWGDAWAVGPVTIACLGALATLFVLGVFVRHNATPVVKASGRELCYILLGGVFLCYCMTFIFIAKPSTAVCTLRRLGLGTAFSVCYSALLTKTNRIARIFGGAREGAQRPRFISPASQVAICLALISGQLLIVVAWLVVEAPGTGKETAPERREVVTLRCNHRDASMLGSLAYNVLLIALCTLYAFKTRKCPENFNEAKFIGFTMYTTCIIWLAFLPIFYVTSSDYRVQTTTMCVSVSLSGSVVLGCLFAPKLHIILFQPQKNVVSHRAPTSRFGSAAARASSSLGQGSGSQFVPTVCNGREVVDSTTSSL
A short description of series [15]: Drug metabolism in human liver microsomes at 5 uM after 15 mins. The class given is ADME, Microsome. The following applies: read-out: Drug metabolism. On the technique in general: Microsomes from liver hold many membrane-bound enzymes, among them those of drug oxidation.
A short description of series [16]: Drug metabolism in rat liver microsomes at 5 uM after 15 mins. In kind it is ADME, Microsome. Particulars: read-out: Drug metabolism.
A further series has as its target hERG (Homo sapiens, UniProt Q12809). Kind of series: Inhibition of human ERG expressed in HEK293 cells assessed as whole cell current at 3 uM after 5 mins by automated patch-clamp assay relative to control. In kind it is cell-based. Particulars: HEK293 cells expressing hERG.
The nature of series [17]: Drug level in Swiss mouse brain at 10 mg/kg, sc after 0.5 hrs. In kind it is ADME, organism-based. Further details: dose 10 mg/kg, route subcutaneous. The following applies: read-out: Drug uptake.
Series [18] in a line: Drug level in Swiss mouse brain at 10 mg/kg, sc after 1 hr. Also noted: dose 10 mg/kg, route subcutaneous. In kind it is ADME, organism-based. The following applies: read-out: Drug uptake.
Series [19] is described as follows: Drug level in Swiss mouse brain at 10 mg/kg, sc after 1.5 hrs. The class given is ADME, organism-based. Further details: dose 10 mg/kg, route subcutaneous. The following applies: read-out: Drug uptake.
A short description of series [20]: Ratio of drug level in brain to plasma in Swiss mouse at 10 mg/kg, sc after 1 hr. Particulars: read-out: BPR. The class given is ADME, organism-based. Further details: dose 10 mg/kg, route subcutaneous.
Series [21] concerns the target T1, Metabotropic glutamate receptor 2. Nature of the series: Positive allosteric modulation of human mGlu2 receptor expressed in CHO cells assessed as fold shift in glutamate-induced [35S]GTPgammaS binding at 3 uM after 30 mins by liquid scintillation counting. The class given is functional, cell-based.
Target sequence in this assay (Q14416 19-872 limits assumed): as above
Series [22] has as its target Metabotropic glutamate receptor 1 (Homo sapiens) (UniProt Q13255). Nature of the series: Agonist activity at human mGluR1 expressed in HEK293 cells by fluorescent Ca2+ assay. In kind it is functional, cell-based.
Series [23] shares this target. Nature of the series: Antagonist activity at human mGluR1 expressed in HEK293 cells by fluorescent Ca2+ assay. The class given is functional, cell-based.
For series [24], the target named is Metabotropic glutamate receptor 3 (Homo sapiens) (UniProt Q14832). Nature of the series: Agonist activity at human mGluR3 expressed in HEK293 cells by fluorescent Ca2+ assay. In kind it is functional, cell-based.
Chain of Metabotropic glutamate receptor 3 (Homo sapiens) (Q14832 23-879 limits assumed): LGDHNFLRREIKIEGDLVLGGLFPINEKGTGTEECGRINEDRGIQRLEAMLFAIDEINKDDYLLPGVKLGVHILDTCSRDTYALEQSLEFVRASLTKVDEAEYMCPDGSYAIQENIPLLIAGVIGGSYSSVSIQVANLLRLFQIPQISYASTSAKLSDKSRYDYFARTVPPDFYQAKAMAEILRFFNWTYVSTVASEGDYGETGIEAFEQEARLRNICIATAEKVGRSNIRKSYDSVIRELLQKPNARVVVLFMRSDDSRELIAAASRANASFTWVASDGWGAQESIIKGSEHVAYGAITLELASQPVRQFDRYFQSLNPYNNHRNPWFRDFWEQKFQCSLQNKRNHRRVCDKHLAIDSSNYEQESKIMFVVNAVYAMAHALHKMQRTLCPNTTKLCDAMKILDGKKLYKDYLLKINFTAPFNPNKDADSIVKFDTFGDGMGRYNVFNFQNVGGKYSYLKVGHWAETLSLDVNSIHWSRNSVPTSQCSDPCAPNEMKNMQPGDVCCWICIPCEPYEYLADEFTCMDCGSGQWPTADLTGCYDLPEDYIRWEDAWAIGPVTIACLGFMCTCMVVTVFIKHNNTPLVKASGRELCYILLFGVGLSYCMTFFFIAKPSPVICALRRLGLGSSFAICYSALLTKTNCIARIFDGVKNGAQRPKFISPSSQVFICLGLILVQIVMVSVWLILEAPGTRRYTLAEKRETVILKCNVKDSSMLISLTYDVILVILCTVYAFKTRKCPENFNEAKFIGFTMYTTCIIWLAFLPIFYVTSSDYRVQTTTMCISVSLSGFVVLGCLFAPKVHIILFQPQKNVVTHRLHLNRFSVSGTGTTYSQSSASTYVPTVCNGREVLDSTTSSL
Series [25] has the same target. Nature of the series: Antagonist activity at human mGluR3 expressed in HEK293 cells by fluorescent Ca2+ assay. In kind it is functional, cell-based.
Series [26] addresses Metabotropic glutamate receptor 5 (Homo sapiens) (UniProt P41594). Nature of the series: Agonist activity at human mGluR5 expressed in HEK293 cells by fluorescent Ca2+ assay. The class given is functional, cell-based.
Series [27] has the same target. Nature of the series: Antagonist activity at human mGluR5 expressed in HEK293 cells by fluorescent Ca2+ assay. The class given is functional, cell-based.
Series [28] in a line: Aqueous solubility of the compound in 20% HP-beta-CD buffer at pH 4. The class given is physicochemical.
Series [29] has as its target T2, CYP3A4 (Homo sapiens, UniProt P08684). Kind of series: Inhibition of CYP3A4 at 1 uM. The class given is ADME.
In series [30] the target is T3, CYP2C9 (Homo sapiens, UniProt P11712). Nature of the series: Inhibition of CYP2C9 at 1 uM. In kind it is ADME.
Series [31] concerns the target T4, CYP2D6 (Homo sapiens, UniProt P10635). Nature of the series: Inhibition of CYP2D6 at 1 uM. The class given is ADME.
Series [32] has as its target T5, CYP1A2 (Homo sapiens, UniProt P05177).
T5 sequence (P05177 whole entry): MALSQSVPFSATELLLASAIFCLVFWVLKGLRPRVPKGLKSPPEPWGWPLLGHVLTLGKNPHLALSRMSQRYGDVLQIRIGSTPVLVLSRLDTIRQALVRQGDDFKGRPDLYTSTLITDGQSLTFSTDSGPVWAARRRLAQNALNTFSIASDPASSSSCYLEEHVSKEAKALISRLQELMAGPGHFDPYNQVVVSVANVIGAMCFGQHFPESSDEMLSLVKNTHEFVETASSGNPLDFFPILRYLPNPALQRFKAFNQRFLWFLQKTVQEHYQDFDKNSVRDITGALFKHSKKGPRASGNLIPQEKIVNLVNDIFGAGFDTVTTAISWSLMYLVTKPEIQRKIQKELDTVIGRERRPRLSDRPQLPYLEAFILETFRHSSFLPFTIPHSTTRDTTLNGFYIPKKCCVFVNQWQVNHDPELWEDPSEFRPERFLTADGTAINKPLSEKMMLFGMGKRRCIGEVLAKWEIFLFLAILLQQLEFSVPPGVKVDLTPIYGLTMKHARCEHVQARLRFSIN
Kind of series: Inhibition of CYP1A2 at 1 uM. In kind it is ADME.

Series [33] addresses T6, CYP2C19 (Homo sapiens, UniProt P33261). Kind of series: Inhibition of CYP2C19 at 1 uM. The class given is ADME.
Series [34] can be described thus: Aqueous solubility of the compound in 20% HP-beta-CD buffer at pH 4 to 7.4. The class given is physicochemical.
Series [35] deals with T2, CYP3A4. Kind of series: Inhibition of CYP3A4 at 5 uM. The class given is ADME.
A further series deals with Brain. Kind of series: Ratio of drug level in Swiss mouse brain at 10 mg/kg, sc after 1.5 hrs to drug level in Swiss mouse brain at 10 mg/kg, sc after 1 hr. In kind it is ADME, organism-based. Particulars: in vivo.
Series [36] concerns the target T3, CYP2C9. Kind of series: Inhibition of CYP2C9 at 5 uM. In kind it is ADME.
The target of series [37] is T4, CYP2D6. Kind of series: Inhibition of CYP2D6 at 5 uM. In kind it is ADME.
For series [38], the target named is T5, CYP1A2. Kind of series: Inhibition of CYP1A2 at 5 uM. In kind it is ADME.
Series [39] addresses T6, CYP2C19. Nature of the series: Inhibition of CYP2C19 at 5 uM. In kind it is ADME.

A word on the inhibition: it is the change of the read-out against control, counted positive when it falls. One may read the EC50 as the concentration needed to bring the measured effect to its halfway point. Usually Emax stands for the maximal effect, on the per cent scale that the assay sets. For orientation: solubility means the concentration that dissolves in the medium under given conditions.

Activity calls are given as the source filed them. No cut-off for these calls is given here. Where only a bound is given, the exact number is not on record here.

Chain of hERG (Q12809 whole entry): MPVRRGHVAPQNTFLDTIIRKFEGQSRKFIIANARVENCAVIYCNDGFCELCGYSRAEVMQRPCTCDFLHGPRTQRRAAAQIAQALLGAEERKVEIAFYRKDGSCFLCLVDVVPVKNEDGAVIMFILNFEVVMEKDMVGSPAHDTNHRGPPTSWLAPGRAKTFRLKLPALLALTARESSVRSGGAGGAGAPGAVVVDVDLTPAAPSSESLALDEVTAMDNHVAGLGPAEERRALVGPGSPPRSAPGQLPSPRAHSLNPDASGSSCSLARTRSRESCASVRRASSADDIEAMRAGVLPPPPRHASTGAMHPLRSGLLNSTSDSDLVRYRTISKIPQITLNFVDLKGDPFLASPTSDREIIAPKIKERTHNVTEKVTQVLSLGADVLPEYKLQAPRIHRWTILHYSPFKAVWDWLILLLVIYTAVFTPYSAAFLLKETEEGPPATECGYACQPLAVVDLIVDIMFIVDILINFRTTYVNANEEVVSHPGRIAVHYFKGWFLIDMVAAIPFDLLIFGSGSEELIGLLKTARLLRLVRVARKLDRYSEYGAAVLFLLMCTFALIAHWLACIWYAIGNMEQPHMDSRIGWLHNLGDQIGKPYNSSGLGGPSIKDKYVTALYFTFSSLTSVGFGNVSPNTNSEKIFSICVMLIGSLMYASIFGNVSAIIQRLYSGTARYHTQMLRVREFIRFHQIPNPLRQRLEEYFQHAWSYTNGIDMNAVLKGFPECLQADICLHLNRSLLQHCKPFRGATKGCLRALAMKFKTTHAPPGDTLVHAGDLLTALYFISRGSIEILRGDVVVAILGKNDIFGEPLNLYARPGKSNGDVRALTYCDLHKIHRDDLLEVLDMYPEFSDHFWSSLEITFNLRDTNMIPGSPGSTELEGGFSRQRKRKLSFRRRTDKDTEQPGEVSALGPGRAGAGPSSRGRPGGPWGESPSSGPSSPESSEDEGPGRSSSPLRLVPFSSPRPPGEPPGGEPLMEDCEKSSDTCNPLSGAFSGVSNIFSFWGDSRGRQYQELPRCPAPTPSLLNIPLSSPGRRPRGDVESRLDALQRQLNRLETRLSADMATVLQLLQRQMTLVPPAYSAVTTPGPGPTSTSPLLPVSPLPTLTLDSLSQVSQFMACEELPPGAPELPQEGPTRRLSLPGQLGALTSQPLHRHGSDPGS
Chain of Metabotropic glutamate receptor 1 (Homo sapiens) (Q13255 19-1194 limits assumed): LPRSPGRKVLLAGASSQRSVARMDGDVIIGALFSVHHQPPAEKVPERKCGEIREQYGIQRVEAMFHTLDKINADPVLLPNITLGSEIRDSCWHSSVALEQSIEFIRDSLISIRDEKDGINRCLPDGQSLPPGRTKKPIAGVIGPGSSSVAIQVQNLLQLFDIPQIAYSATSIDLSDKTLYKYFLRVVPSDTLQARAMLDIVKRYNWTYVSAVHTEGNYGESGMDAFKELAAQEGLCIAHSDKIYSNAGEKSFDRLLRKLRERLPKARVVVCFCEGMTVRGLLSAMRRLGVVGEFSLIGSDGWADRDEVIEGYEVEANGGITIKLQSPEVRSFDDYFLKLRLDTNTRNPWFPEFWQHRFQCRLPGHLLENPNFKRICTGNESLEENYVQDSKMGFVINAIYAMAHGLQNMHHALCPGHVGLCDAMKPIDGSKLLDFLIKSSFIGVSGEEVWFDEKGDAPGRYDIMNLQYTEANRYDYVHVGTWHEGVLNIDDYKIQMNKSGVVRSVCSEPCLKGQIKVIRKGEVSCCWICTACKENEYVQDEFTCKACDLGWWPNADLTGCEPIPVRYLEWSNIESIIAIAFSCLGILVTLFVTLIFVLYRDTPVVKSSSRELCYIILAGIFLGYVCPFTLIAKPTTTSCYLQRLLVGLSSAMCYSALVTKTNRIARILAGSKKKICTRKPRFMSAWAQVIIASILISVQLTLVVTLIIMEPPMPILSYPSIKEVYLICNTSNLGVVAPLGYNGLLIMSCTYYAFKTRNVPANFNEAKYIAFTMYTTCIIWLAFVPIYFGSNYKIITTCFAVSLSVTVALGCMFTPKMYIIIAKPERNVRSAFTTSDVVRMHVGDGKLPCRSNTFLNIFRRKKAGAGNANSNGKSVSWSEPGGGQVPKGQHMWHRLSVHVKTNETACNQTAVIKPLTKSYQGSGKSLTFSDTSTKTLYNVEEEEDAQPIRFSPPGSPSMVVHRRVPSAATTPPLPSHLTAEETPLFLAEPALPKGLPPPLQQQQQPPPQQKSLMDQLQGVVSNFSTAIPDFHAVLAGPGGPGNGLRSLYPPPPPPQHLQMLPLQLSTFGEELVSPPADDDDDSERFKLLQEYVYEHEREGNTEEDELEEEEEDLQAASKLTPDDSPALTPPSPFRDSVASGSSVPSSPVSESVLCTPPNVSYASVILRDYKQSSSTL

Take `CCCCn1ccc(-c2ccc(Oc3ccnc(C)c3)c(F)c2)c(C#N)c1=O`: the result (in the series with Rattus norvegicus [1]; with Rattus norvegicus [2]; in series [3]; in [4]; in series [5]; in [6]) was inactive. Further, the result (with Rattus norvegicus [9]; in the series on Rattus norvegicus [11]; with Rattus norvegicus [12]; in series [22]; in series [23]; in [24]) was inactive. Also, the outcome in series [25], in [26] and in [27] was inactive. Also, the Activity in [7] is > 50%. Besides, the inhibition result with Rattus norvegicus [8] is “Active”. Moreover, the result in the series with Rattus norvegicus [10] was Active. In addition, the EC50 in series [13] came out at 316 nM. Further, the Emax in series [14] was 233%. Besides, the metabolised at 0.25 h, 5 µM was determined as 33% in series [15] and 50% in [16]. Also, on hERG, the inhibition at 5 min, 3 µM turned out to be 21%. Also, the concentration at 0.5 h in [17] came out at 1280 ng/g. Also, in series [18], the concentration at 1 h is 1120 ng/g. For the same compound, the concentration at 1.5 h in [19] amounted to 1020 ng/g. Moreover, the Kp at 1 h in series [20] was determined as 0.6. Moreover, the fold change (FC) in series [21] is 11.

Regarding `CC(C)CCn1ccc(-c2ccc(Oc3ccncc3)cc2)c(C#N)c1=O`, in series [13], the EC50 stood at 550 nM. The maximum response (Emax) in series [14] amounted to 245%. Besides, the metabolised at 0.25 h, 5 µM in series [15] was 27%; in series [16] it was 41%. Moreover, the solubility in [28] is ≥ 4000 µg/mL. The inhibition at 1 µM came to 70% against CYP3A4 [29]; 82% at CYP2C9 [30]; 84% on CYP2D6 [31]; 80% on CYP1A2 [32]; 97% against CYP2C19 [33]. The inhibition at 5 min, 3 µM on hERG was determined as 52%.

Consider `CC(C)CCn1ccc(-c2ccc(Oc3ccccc3)cc2)c(C#N)c1=O`, for which, in series [13], the EC50 came out at 42 nM. The Emax in [14] was found to be 188%. Moreover, the metabolised at 0.25 h, 5 µM in series [15] stood at 36%; in series [16], 32%. Besides, the solubility in series [34] is > 1 µg/mL. The inhibition at 5 µM against CYP3A4 [35] is < 50%.

Take `CCCCn1ccc(-c2ccc(Oc3ccnc(C)c3)cc2)c(C#N)c1=O`: in series [14], the Emax came to 243%. Besides, the metabolised at 0.25 h, 5 µM in [15] worked out at 31%; in series [16], 44%. Besides, the inhibition at 5 min, 3 µM at hERG was determined as 53%. Also, the concentration at 0.5 h in series [17] was determined as 1160 ng/g. The concentration at 1 h in [18] came out at 994 ng/g. Also, the concentration at 1.5 h in series [19] worked out at 592 ng/g. The Kp at 1 h in series [20] stood at 0.5. Besides, the Ratio in the series on Brain amounted to 2.

`Cc1cc(Oc2ccc(-c3ccn(CCC(C)C)c(=O)c3C#N)cc2)ccn1`: the EC50 in [13] turned out to be 447 nM. Further, in [14], the Emax is 266%. Further, the metabolised at 0.25 h, 5 µM in series [15] was determined as 61%; in series [16], 47%. For the same compound, the inhibition at 5 µM on CYP2C9 [36], against CYP2D6 [37], on CYP1A2 [38] and on CYP2C19 [39] was < 50% throughout.
